Results on four compounds are retold here after patent US4267187A, “Aminopropanol derivatives of 2-(0-hydroxyphenyl)-pyrrole” (BASF Aktiengesellschaft, priority 1978, dated 1981).

Structures are written as SMILES. Where a name gives a salt, the structure may show the parent alone.

Series [1] relates to isoproterenol-induced tachycardia. Kind of series: β1-sympatholytic action: inhibition of isoproterenol-induced tachycardia in pithed rats. Format: in vivo, pithed rats (Sprague-Dawley, Rattus norvegicus). Conditions: for β1-sympatholytic action, R.A. (relative activity): Propranolol = 1.00, from ED 50%, intravenous; for β1-sympatholytic activity, times greater than that of propranolol: versus propranolol. Here is the method:
The β-sympatholytic action was tested on rats, in comparison with the known β-sympatholytic agent propanolol (1-(isopropylamino)-1-naphthyloxy-2-propanol.HCl). The following methods were used for this purpose:
1. β1 -sympatholytic action
^1 Inhibition of isoproterenolinduced tachycardia in pithed rats.
Intravenous administration
^2 Dose which inhibits the isoproterenolinduced tachycardia by 50%

The conditions of series [2]: for Therapeutic range, relative: in vivo; for Therapeutic range (LD 50/ED 50%), times greater than that of propranolol: versus propranolol.
Series [3] has as its system NMRI mice. Kind of series: Acute toxicity in mice, intraperitoneal. Conditions: deaths within 24 hours, Probit analysis.
Experimental: The acute toxicity was determined on groups of 10 female NMRI mice, weight 19-27 g, with intraperitoneal administration.
Intraperitoneal administration

`CC(C)NCC(O)COc1cccc2ccccc12` (racemic) [Propranolol, 1-(isopropylamino)-1-naphthyloxy-2-propanol.HCl, reference compound]: the “β1-sympatholytic action, R.A. (relative activity)” value in series [1] (pithed rats) is 1.00. Moreover, the ED50 in series [1] (Rattus norvegicus, iv, 5 min, read-out: β1-sympatholytic action, ED 50% (dose which inhibits the isoproterenol-induced tachycardia by 50%)) was found to be 0.0127 mg/kg.
Turning to `CC(C)(C)NCC(O)COc1ccccc1-c1ccc[nH]1` (stereo not drawn) [Example 1, 2-[2-(3-tert.-butylamino-2-hydroxypropoxy)-phenyl]-pyrrole fumarate], in series [2], the “Therapeutic range, relative” value was found to be 6.91 and the “Therapeutic range (LD 50/ED 50%), times greater than that of propranolol” value stood at 7 times. Further, the “Acute toxicity LD 50” value in series [3] is 165. Besides, in series [1] (pithed rats), the “β1-sympatholytic action, R.A. (relative activity)” value is 5.59. Besides, in series [1], the “β1-sympatholytic activity, times greater than that of propranolol” value was 5.6 times.
Turning to `CC(C)NCC(O)COc1ccccc1-c1ccc[nH]1` (stereo not drawn) [Example 2, 2-[2-(3-isopropylamino-2-hydroxypropoxy)-phenyl]-pyrrole fumarate hemihydrate], in series [2], the “Therapeutic range, relative” value was found to be 4.07 and the “Therapeutic range (LD 50/ED 50%), times greater than that of propranolol” value is listed as 4 times. Further, the “β1-sympatholytic action, R.A. (relative activity)” value in series [1] (pithed rats) worked out at 3.18. For the same compound, in series [1], the “β1-sympatholytic activity, times greater than that of propranolol” value was determined as 3.2 times.
With `CC(C)NCC(O)c1ccc(O)c(O)c1` (stereo not drawn) [Isoproterenol, reference compound], the “increase in pulse rate, on average” value in series [1] (isoproterenol 0.1 μg/kg intravenously, pithed rats) was 45%.
